Laboratory results as given in PubChem BioAssay (NCI).
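A five-concentration, 48-hour dose response in 96-well plates underlies each endpoint, interpolated linearly between surrounding concentrations. Abbreviation: GI50, concentration required for 50% inhibition of growth. At the TGI there is no net growth.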

Key:
Experiment in all cases: NCI tumour cell line growth inhibition, 48 h
[1] = tested on: 786-0 renal
[2] = tested on: A498 renal
[3] = tested on: A549 NSCLC
[4] = tested on: ACHN renal
[5] = tested on: BT-549 breast
[6] = tested on: CAKI-1 renal
[7] = tested on: CCRF-CEM leukemia
[8] = tested on: COLO 205 colon
[9] = tested on: DU-145 prostate
[10] = tested on: EKVX NSCLC
[11] = tested on: HCC-2998 colon
[12] = tested on: HCT-116 colon
[13] = tested on: HCT-15 colon
[14] = tested on: HL-60(TB) leukemia
[15] = tested on: HOP-62 NSCLC
[16] = tested on: HS 578T breast
[17] = tested on: HT29 colon
[18] = tested on: IGROV1 ovarian
[19] = tested on: K-562 leukemia
[20] = tested on: KM12 colon
[21] = tested on: LOX IMVI melanoma
[22] = tested on: M14 melanoma
[23] = tested on: MALME-3M melanoma
[24] = tested on: MCF7 breast
[25] = tested on: MDA-MB-231 breast
[26] = tested on: MDA-MB-435
[27] = tested on: MOLT-4 leukemia
[28] = tested on: NCI-H226 lung

CC1=NN(C(=O)c2nn(-c3ccc(Cl)cc3)cc2O)C(=O)C1
GI50 [1]: 5.33 µM
TGI [1]: > 60.4 µM
GI50 [2]: 2920 nM
TGI [2]: > 82 µM
GI50 [3]: 2920 nM
TGI [3]: > 100 µM
GI50 [4]: 1610 nM
TGI [4]: > 100 µM
GI50 [5]: 766 nM
TGI [5]: > 100 µM
GI50 [6]: 1890 nM
TGI [6]: 26.4 µM
GI50 [7]: 608 nM
TGI [7]: > 22 µM
GI50 [8]: 3.78 µM
TGI [8]: > 82.6 µM
GI50 [9]: 8.08 µM
TGI [9]: > 100 µM
GI50 [10]: 1930 nM
TGI [10]: > 100 µM
GI50 [11]: 3.37 µM
TGI [11]: > 100 µM
GI50 [12]: 743 nM
TGI [12]: > 100 µM
GI50 [13]: 845 nM
TGI [13]: > 100 µM
GI50 [14]: 1170 nM
TGI [14]: 7.46 µM
GI50 [15]: 1130 nM
TGI [15]: > 77.6 µM
GI50 [16]: 340 nM
TGI [16]: > 100 µM
GI50 [17]: 4.44 µM
TGI [17]: > 100 µM
GI50 [18]: 505 nM
TGI [18]: 41 µM
GI50 [19]: 501 nM
TGI [19]: > 100 µM
GI50 [20]: 4.52 µM
TGI [20]: > 100 µM
GI50 [21]: 2660 nM
TGI [21]: > 100 µM
GI50 [22]: 2800 nM
TGI [22]: > 53.5 µM
GI50 [23]: 9.29 µM
TGI [23]: 99.5 µM
GI50 [24]: 4.65 µM
TGI [24]: > 100 µM
GI50 [25]: 2750 nM
TGI [25]: > 100 µM
GI50 [26]: 4.12 µM
TGI [26]: > 100 µM
GI50 [27]: 1240 nM
TGI [27]: > 100 µM
GI50 [28]: 3.17 µM
TGI [28]: > 67.5 µM
